How the values were obtained:
[1] = test system: Iba1-positive macrophages in subcutaneously transplanted 9L gliosarcoma; experiment: Pathologic examination of subcutaneous tumor, Iba1 staining of macrophages and microdensitometry; format: in vivo, rat
Description: After completion of the immobilization, all of the tumor samples were cut at the center of tumor in the longitudinal direction. The obtained fragments were each stained with hematoxylin and eosin (HE), and were also stained with Iba1 or CD68 for detection of macrophages. Briefly, the sample was bathed in water for pre-treatment (40 minutes, 95° C.), and the deparaffinized portion was then washed with KN Buffer (KN-09002; Pathology Institute Corp, Toyama, Japan). Subsequently, the fragment was incubated with goat polyclonal anti-Iba1 (1:3000, ab107159, Abcam) or anti-CD68 antibody (1:100, MCA-341R, AbD) for 30 minutes, and were further washed with KN Buffer. Subsequently, regarding Iba1, the fragment was incubated with Simple Stain™ MAX-PO (G) (H1301; Nichirei Bioscience Inc. Japan) for 30 minutes. Regarding CD68, the fragment was incubated with Envision+Dual Link HRP-label/polymer reagent (Dako: K4061) for 30 minutes. The resultant was finally washed with KN Buffer, and was then treated with diaminobenzidine (DAB) for 10 minutes for color development. […]
Moreover, the procedures of the previous study (Prall F, Maletzki C, Linnebacher M: Microdensitometry of osteopontin as an immunohistochemical prognostic biomarker in colorectal carcinoma tissue microarrays: potential and limitations of the method in ‘biomarker pathology’. Histopathology 61: 823-32, 2012.) were partially modified, and using public domain software, Image J (Wayne Rasband, National Institute of Mental Health, Bethesda, Md.), microdensitometry was carried out regarding immunohistochemical quantitative evaluation of Iba1 on a digital photomicrograph. […] In order to quantify the color signals of immunohistochemical DAB of Iba1, the image data of all samples were transferred into Image J, and were then converted to 8-bit grayscale images. […] The present inventors have defined the mean gray value (MGV) of all of the tumor samples in a control group (n=5) as a representative value, and the relative intensities of MGVs in other groups to the aforementioned representative value were then calculated.

[2] = test system: 9L gliosarcoma cells; experiment: In vivo radiosensitizing effect of ALA with multiple doses of ionizing radiation, tumor growth in rat subcutaneous tumor model
Description: As experimental animals, inbred male Fischer 344 rats (8 week old) (SLC, Inc. (Hamamatsu, Japan)) were used and were inoculated with 9L gliosarcoma cells. The inoculation was carried out in accordance with the procedures described in the following publications: Yamamoto J, Hirano T, Li S, Koide M, Kohno E, Inenaga C, et al.: Selective accumulation and strong photodynamic effects of a new photosensitizer, ATX-S10.Na (II), in experimental malignant glioma. Int J Oncol 27: 1207-13, 2005; Yamamoto J, Yamamoto S, Hirano T, Li S, Koide M, Kohno E, et al.: Monitoring of singlet oxygen is useful for predicting the photodynamic effects in the treatment for experimental glioma. Clin Cancer Res 12: 7132-9, 2006. In short, 9L gliosarcoma cells (1×10^6 cells) were transplanted into the skin on the dorsal side of each Fischer 344 rat, so as to produce a rat subcutaneous tumor model.
As described above, 9L gliosarcoma cells were inoculated into inbred Fischer 344 rats. […] Moreover, according to other previous studies, it had been reported that the dose of ALA by a single intravenous injection is 100 to 500 mg/kg body weight in the photodynamic therapy (PDT) using rodents (Yamamoto J, Yamamoto S, Hirano T, Li S, Koide M, Kohno E, et al.: Monitoring of singlet oxygen is useful for predicting the photodynamic effects in the treatment for experimental glioma. Clin Cancer Res 12:7132-9, 2006; Abels C, Heil P, Dellian M, Kuhnle G E, Baumgartner R, Goetz A E: In vivo kinetics and spectra of 5-aminolaevulinic acid-induced fluorescence in an amelanotic melanoma of the hamster. Br J Cancer 70: 826-33, 1994; Abels C, Fritsch C, Bolsen K, Szeimies R M, Ruzicka T, Goerz G, et al.: Photodynamic therapy with 5-aminolaevulinic acid-induced porphyrins of an amelanotic melanoma in vivo. J Photochem Photobiol B 40: 76-83, 1997; Bozzini G, Colin P, Betrouni N, Maurage C A, Leroy X, Simonin S, et al.: Efficiency of 5-ALA mediated photodynamic therapy on hypoxic prostate cancer: a preclinical study on the Dunning R3327-AT2 rat tumor model. Photodiagnosis Photodyn Ther 10: 296-303, 2013.). Accordingly, in the present study, the present inventors have determined the maximum dose of ionizing radiation to be 10 Gy, and the maximum dose of ALA to be 500 mg/kg body weight. […] Multiple intravenous injections into the caudal vein of rats had been technically difficult, but according to the experience of the present inventors, at maximum 5 times of injections had been possible. Accordingly, the present inventors have determined an optimal ionizing irradiation schedule, in which ionizing irradiation at a dose of 2 Gy/day and ALA multiple-dose administration at a dose of 100 mg/kg body weight/day were carried out for 5 consecutive days. After the subcutaneous tumor had grown to a size of 6 to 8 mm in diameter, the rats were randomly divided into four groups, and were then treated as follows:
control group (without treatments) (n=5); ALA multiple-dose administration group (n=5); ionizing radiation multiple-dose application group (RT) (n=7); and ALA multiple-dose administration+ionizing radiation multiple-dose application group. (5-ALA+RT) (n=7).
In a group to which only ALA was administered, only ALA (100 mg/kg) was administered to rats via caudal vein for 5 consecutive days. In a multiple-dose application group involving only ionizing radiation, rats were anesthetized and were then irradiated with an ionizing radiation of 2 Gy/day for 5 consecutive days (a total of 10 Gy). In an ALA multiple-dose administration+ionizing radiation multiple-dose application group, for 5 consecutive days, rats were intravenously administered with ALA (100 mg/kg), then 3 hours later, the rats were anesthetized, and an ionizing radiation of 2 Gy/day was applied to the subcutaneous tumor thereof in a dark place (a total of 10 Gy). Ionizing radiation was applied at a rate of 0.65 Gy/min, using an X-ray irradiation apparatus (MBR-1520R; HITACHI Engineering & Service Co., Ltd., Japan). […]

SMILES: NCC(=O)CCC(=O)O [ALA, 5-aminolevulinic acid]
- mean gray value (MGV) of Iba1, microdensitometry, versus other groups ([1]; ALA multiple-dose + ionizing radiation multiple-dose group, p<0.05 vs RT group, p<0.01 vs ALA group): significantly higher
- Iba1-positive macrophages in subcutaneous tumor ([1]; ALA multiple-dose administration group, 16th day after treatment): mainly gathered to the surface of the subcutaneous tumor
- gathering of Iba1-positive macrophages to surface and inside of subcutaneous tumor ([1]; ionizing radiation combined with ALA administration, 16th day after treatment): significantly observed
- mean tumor growth inhibitory rate ([2]; 16th day after treatment, ALA multiple-dose + ionizing radiation multiple-dose group compared with ionizing radiation multiple-dose group): 42.5%
- mean tumor volume, Day 0 ([2]; ALA alone 100 mg/kg i.v. for 5 consecutive days, Day 0, mean ± SE, n = 5): 143.9 ± 17.4 mm^3
- mean tumor volume, Day 8 ([2]; ALA alone 100 mg/kg i.v. for 5 consecutive days, Day 8, mean ± SE, n = 5): 865.4 ± 107.2 mm^3
- mean tumor volume, Day 10 ([2]; ALA alone 100 mg/kg i.v. for 5 consecutive days, Day 10, mean ± SE, n = 5): 1403 ± 224.3 mm^3
- mean tumor volume, Day 12 ([2]; ALA alone 100 mg/kg i.v. for 5 consecutive days, Day 12, mean ± SE, n = 5): 1842.6 ± 218.8 mm^3
- mean tumor volume, Day 14 ([2]; ALA alone 100 mg/kg i.v. for 5 consecutive days, Day 14, mean ± SE, n = 5): 2276.3 ± 192.8 mm^3
- mean tumor volume, Day 16 ([2]; ALA alone 100 mg/kg i.v. for 5 consecutive days, Day 16, mean ± SE, n = 5): 2869.4 ± 267.9 mm^3
- growth of the tumor in comparison to the control group ([2]; ALA multiple-dose administration alone, 16th day, p=0.0448): inhibited

Reference: US20170056351A1, “COMPOSITION FOR INDUCING TUMOR IMMUNITY” (UNIVERSITY OF OCCUPATIONAL AND ENVIRONMENTAL HEALTH, JAPAN, priority 2014, published 2017)
